22 molecules from patent US20230257415A1, “COMPOUNDS FOR TREATING CNS DISORDERS” (SAGE THERAPEUTICS, INC., priority 2019, published 2023) can be followed below.

SMILES strings stand for the structures.

The target of the assay is GABAA receptor. Kind of assay: [35S]-TBPS binding assay, rat brain cortical membranes, in the presence of GABA. Conditions: inhibition of 3 nM [35S]-TBPS binding, 5 mM GABA, 90 min, room temp. The method, then: [35S]-t-Butylbicyclophosphorothionate (TBPS) binding assays using rat brain cortical membranes in the presence of 5 mM GABA has been described (Gee et al, J. Pharmacol. Exp. Ther. 1987, 241, 346-353; Hawkinson et al, Mol. Pharmacol. 1994, 46, 977-985; Lewin, A.H et al., Mol. Pharmacol. 1989, 35, 189-194).
Briefly, cortices are rapidly removed following decapitation of carbon dioxide-anesthetized Sprague-Dawley rats (200-250 g). The cortices are homogenized in 10 volumes of ice-cold 0.32 M sucrose using a glass/teflon homogenizer and centrifuged at 1500 x g for 10 min at 4° C. The resultant supernatants are centrifuged at 10,000 x g for 20 min at 4° C. to obtain the P2 pellets. The P2 pellets are resuspended in 200 mM NaCl/50 mM Na-K phosphate pH 7.4 buffer and centrifuged at 10,000 x g for 10 min at 4° C. This washing procedure is repeated twice and the pellets are resuspended in 10 volumes of buffer. Aliquots ([…]) of the membrane suspensions are incubated with 3 nM [^35S]-TBPS and […] aliquots of test drug dissolved in dimethyl sulfoxide (DMSO) (final 0.5%) in the presence of 5 mM GABA. The incubation is brought to a final volume of 1.0 mL with buffer. […] Following a 90 min incubation at room temp, the assays are terminated by filtration through glass fiber filters (Schleicher and Schuell No. 32) using a cell harvester (Brandel) and rinsed three times with ice-cold buffer. Filter bound radioactivity is measured by liquid scintillation spectrometry. Non-linear curve fitting of the overall data for each drug averaged for each concentration is done using Prism (GraphPad). […] The concentration of test compound producing 50% inhibition (IC50) of specific binding and the maximal extent of inhibition (Imax) are determined for the individual experiments with the same model used for the overall data and then the means ± SEM.s of the individual experiments are calculated.
Various compounds are or can be screened to determine their potential as modulators of [^35S]-TBPS binding in vitro. These assays are or can be performed in accordance with the above.
For orientation: IC50 means the concentration that gives 50% inhibition. On to `CC[C@]12CC[C@@](C)(O)C[C@H]1CC[C@H]1[C@@H]3CCC[C@H](CN(C)S(=O)(=O)c4ccccc4)[C@@]3(C)CC[C@@H]12` [Example 38, N-(((1S,4aS,4bS,6aR,8R,10aS,10bS,12aS)-10a-ethyl-8-hydroxy-8,12a-dimethyloctadecahydrochrysen-1-yl)methyl)-N-methylbenzenesulfonamide], for which the IC50 was below 0.1 µM.
In the case of `C[C@@H](Nc1cccc(C#N)c1)[C@H]1CCC[C@H]2[C@@H]3CC[C@@H]4C[C@](C)(O)CC[C@@H]4C3CC[C@]12C` (stereo partly drawn) [Example 49, 3-(((1R)-1-((1S,4aS,4bR,6aR,8R,10aS,12aS)-8-hydroxy-8,12a-dimethyloctadecahydrochrysen-1-yl)ethyl)amino)benzonitrile] it was below 0.1 µM; in that of `COC[C@@]1(O)CC[C@@H]2C3CC[C@]4(C)[C@@H]([C@H](C)NC(=O)c5ccc(C#N)cc5)CCC[C@H]4[C@@H]3CC[C@@H]2C1` (stereo partly drawn) [Example 47, 4-cyano-N-((1S)-1-((1S,4aS,4bR,6aR,8R,10aS,12aS)-8-hydroxy-8-(methoxymethyl)-12a-methyloctadecahydrochrysen-1-yl)ethyl)benzamide], 0.1 to 1 µM; in that of `Cn1ccc(C(=O)NC[C@H]2CCC[C@H]3[C@@H]4CC[C@@H]5C[C@](C)(O)CC[C@@H]5[C@H]4CC[C@]23C)n1` [Example 27, N-(((1S,4aS,4bR,6aR,8R,10aS,10bR,12aS)-8-hydroxy-8,12a-dimethyloctadecahydrochrysen-1-yl)methyl)-1-methyl-1H-pyrazole-3-carboxamide], 0.1 to 1 µM.
Next, `C[C@H](Nc1cccc(C#N)c1)[C@H]1CCC[C@H]2[C@@H]3CC[C@@H]4C[C@](C)(O)CC[C@@H]4C3CC[C@]12C` (stereo partly drawn) [Example 48, 3-(((1S)-1-((1S,4aS,4bR,6aR,8R,10aS,12aS)-8-hydroxy-8,12a-dimethyloctadecahydrochrysen-1-yl)ethyl)amino)benzonitrile]: below 0.1 µM; `C[C@@]1(O)CC[C@H]2[C@H](CC[C@@H]3[C@@H]2CC[C@]2(C)[C@@H](CNC(=O)c4ccccc4)CCC[C@@H]32)C1` [Example 24, N-(((1S,4aS,4bR6aR,8R,10aS,10bR,12aS)-8-hydroxy-8,12a-dimethyloctadecahydrochrysen-1-yl)methyl)benzamide]: 0.1 to 1 µM.
Next, `C[C@@]1(O)CC[C@H]2[C@H](CC[C@@H]3[C@@H]2CC[C@]2(C)[C@@H](CNS(=O)(=O)C4CC4)CCC[C@@H]32)C1` [Example 32, N-(((1S,4aS,4bR,6aR,8R,10aS,10bR,12aS)-8-hydroxy-8,12a-dimethyloctadecahydrochrysen-1-yl)methyl)cyclopropanesulfonamide]: 0.1 to 1 µM.
`CN(C[C@H]1CCC[C@H]2[C@@H]3CC[C@@H]4C[C@](C)(O)CC[C@@H]4[C@H]3CC[C@]12C)C(=O)c1ccccc1` [Example 23, N-(((1S,4aS,4bR,6aR,8R,10aS,10bR,12aS)-8-hydroxy-8,12a-dimethyloctadecahydrochrysen-1-yl)-methyl)-N-methylbenzamide]: the IC50 was in the range of 0.1 to 1 µM.
In the case of `COC[C@@]1(O)CC[C@@H]2C3CC[C@]4(C)[C@@H]([C@@H](C)NC(=O)c5ccc(F)cc5)CCC[C@H]4[C@@H]3CC[C@@H]2C1` (stereo partly drawn) [Example 44, 4-fluoro-N-((1R)-1-((1S,4aS,4bR,6aR,8R,10aS,12aS)-8-hydroxy-8-(methoxymethyl)-12a-methyloctadecahydrochrysen-1-yl)ethyl)benzamide] it was 0.1 to 1 µM; in that of `COC[C@@]1(O)CC[C@@H]2C3CC[C@]4(C)[C@@H]([C@@H](C)NC(=O)c5ccc(C#N)cc5)CCC[C@H]4[C@@H]3CC[C@@H]2C1` (stereo partly drawn) [Example 46, 4-cyano-N-((1R)-1-((1S,4aS,4bR,6aR,8R,10aS,12aS)-8-hydroxy-8-(methoxymethyl)-12a-methyloctadecahydrochrysen-1-yl)ethyl)benzamide], 0.1 to 1 µM; in that of `C[C@H](NC(=O)c1ccc(C#N)cc1)[C@H]1CCC[C@H]2[C@@H]3CC[C@@H]4C[C@](C)(O)CC[C@@H]4C3CC[C@]12C` (stereo partly drawn) [Example 42, 4-cyano-N-((1S)-1-((1S,4aS,4bR,6aR,8R,10aS,12aS)-8-hydroxy-8,12a-dimethyloctadecahydrochrysen-1-yl)ethyl)benzamide], 0.1 to 1 µM.
In the case of `CCC[C@@]1(O)CC[C@@]2(C)[C@@H](CC[C@@H]3[C@@H]2CC[C@]2(C)[C@@H]([C@@H](C)Cn4nnnc4C)CCC[C@@H]32)C1` [Example 10, (2R,4aS,4bS,6aS,7R,10aS,10bR,12aS)-4a,6a-dimethyl-7-((R)-1-(5-methyl-1H-tetrazol-1-yl)propan-2-yl)-2-propyloctadecahydrochrysen-2-ol] it was 0.1 to 1 µM.
For the molecule `CCOC[C@@]1(O)CC[C@@H]2C3CC[C@]4(C)[C@@H]([C@@H](C)NC(=O)c5ccc(C#N)cc5F)CCC[C@H]4[C@@H]3CC[C@@H]2C1` (stereo partly shown) [Example 56], the IC50 was 0.1 to 1 µM.
In the case of `CCC[C@@]1(O)CC[C@H]2[C@@H](CC[C@@H]3[C@@H]2CC[C@]2(C)[C@@H]([C@@H](C)Cn4nnc(C)n4)CCC[C@@H]32)C1` [Example 5, (2R,4aS,4bR,6aS,7R,10aS,10bR,12aS)-6a-methyl-7-((R)-1-(5-methyl-2H-tetrazol-2-yl)propan-2-yl)-2-propyloctadecahydrochrysen-2-ol] it was 0.1 to 1 µM; in that of `CCOC[C@@]1(O)CC[C@@H]2C3CC[C@]4(C)[C@@H]([C@H](C)NC(=O)c5ccc(F)cc5F)CCC[C@H]4[C@@H]3CC[C@@H]2C1` (stereo partly drawn) [Example 53, N-((1S)-1-((1S,4aS,4bR,6aR,8R,10aS,12aS)-8-(ethoxymethyl)-8-hydroxy-12a-methyloctadecahydrochrysen-1-yl)ethyl)-2,4-difluorobenzamide], 0.1 to 1 µM; in that of `CCC[C@@]1(O)CC[C@H]2[C@@H](CC[C@@H]3[C@@H]2CC[C@]2(C)[C@@H]([C@@H](C)Cn4nnnc4C)CCC[C@@H]32)C1` [Example 8, (2R,4aS,4bR,6aS,7R,10aS,10bR,12aS)-6a-methyl-7-((R)-1-(5-methyl-1H-tetrazol-1-yl)propan-2-yl)-2-propyloctadecahydrochrysen-2-ol], 0.1 to 1 µM.
For the molecule `C[C@@H](NC(=O)c1ccc(C#N)cc1)[C@H]1CCC[C@H]2[C@@H]3CC[C@@H]4C[C@](C)(O)CC[C@@H]4C3CC[C@]12C` (stereo partly drawn) [Example 43, 4-cyano-N-((1R)-1-((1S,4aS,4bR,6aR,8R,10aS,12aS)-8-hydroxy-8,12a-dimethyloctadecahydrochrysen-1-yl)ethyl)benzamide], the IC50 fell in the range of 0.1 to 1 µM.
Next, `CC[C@]12CCC3[C@H]4CC[C@](O)(COC)C[C@H]4CC[C@H]3[C@@H]1CCC[C@@H]2CNC(=O)c1ccc(C#N)cc1` (stereo partly drawn) [Example 41, 4-cyano-N-(((1S,4aS,4bR,6aR,8R,10aS,12aS)-12a-ethyl-8-hydroxy-8-(methoxymethyl)octadecahydrochrysen-1-yl)methyl)benzamide]: 0.1 to 1 µM.
Next, `C[C@@H](Cn1cc(C#N)cn1)[C@H]1CC[C@H]2[C@@H]3CC[C@H]4CC[C@](C)(O)CC[C@]4(C)[C@H]3CC[C@]12C` [Example 19, 1-((R)-2-((1R,3aS,3bR,5aS,8S,10aS,10bS,12aS)-8-hydroxy-8,10a,12a-trimethyloctadecahydrocyclohepta[a]cyclopenta[f]naphthalen-1-yl)propyl)-1H-pyrazole-4-carbonitrile]: below 0.1 µM; `C[C@@]1(O)CC[C@H]2[C@H](CC[C@@H]3[C@@H]2CC[C@]2(C)[C@@H](CNC(=O)c4cccc(C#N)c4)CCC[C@@H]32)C1` [Example 31, 3-cyano-N-(((1S,4aS,4bR,6aR,8R,10aS,10bR,12aS)-8-hydroxy-8,12a-dimethyloctadecahydrochrysen-1-yl)methyl)benzamide]: 0.1 to 1 µM.
`C[C@@]1(O)CC[C@H]2[C@H](CC[C@@H]3[C@@H]2CC[C@]2(C)[C@@H](CNC(=O)c4ccccc4F)CCC[C@@H]32)C1` [Example 30, 2-fluoro-N-(((1S,4aS,4bR,6aR,8R,10aS,10bR,12aS)-8-hydroxy-8,12a-dimethyloctadecahydrochrysen-1-yl)methyl)benzamide]: the IC50 is below 0.1 µM.
Consider `C[C@@]1(O)CC[C@H]2[C@H](CC[C@@H]3[C@@H]2CC[C@]2(C)[C@@H](CNC(=O)c4ccccn4)CCC[C@@H]32)C1` [Example 29, N-(((1S,4aS,4bR,6aR,8R,10aS,10bR,12aS)-8-hydroxy-8,12a-dimethyloctadecahydrochrysen-1-yl)methyl)picolinamide], for which the IC50 lay in the range of 0.1 to 1 µM.
